Here are results for 15 compounds from patent US11986532B2 (Arvinas Operations, Inc., priority 2021, dated 2024).

The target in the experiment is T1, BCL6 (Homo sapiens, UniProt P41182).
T1 construct: endogenous in cells; host or cells: T47D breast cancer epithelial cells
Description: Immunofluorescence protocol for high content imaging of BCL6 (degradation) in T47D cells, 3 days compound treatment. Format: cell-based. To be noted: for Dmax: T47D, read-out: Mean Dmax (%)** category; for DC50: read-out: Mean DC50 (nM)* category. The procedure, abridged: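 For degradation, compound series (3-fold, 11 points, top 0.1 or 1 μM final) were added to adherent T47D cultures for 3 days. BCL6 immunostaining used a rabbit antibody at 1:300 and an Alexa-488 secondary, with imaging at 10× magnification.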

As to `CNC(=O)COc1cc2cc(Nc3nc(N4CCN(CC5CCC6(CC5)CN(c5c(F)ccc7c5CN(C5CCC(=O)NC5=O)C7=O)C6)CC4)ncc3Cl)ccc2n(C(C)C)c1=O` (centres unmarked) [Compound 314, 2-{[6-({5-chloro-2-[4-({2-[2-(2,6-dioxopiperidin-3-yl)-5-fluoro-1-oxo-2,3-dihydro-1H-isoindol-4-yl]-2-azaspiro[3.5]nonan-7-yl}methyl)piperazin-1-yl]pyrimidin-4-yl}amino)-2-oxo-1-(propan-2-yl)-1,2-dihydroquinolin-3-yl]oxy}-N-methylacetamide], the Dmax is 50 to 70% and the half-maximal degradation concentration (DC50) was below 10 nM.

`CNC(=O)COc1cc2cc(Nc3nc(N4CCN(CC5CCC6(CC5)CN(c5cc(F)cc7c5CN(C5CCC(=O)NC5=O)C7=O)C6)CC4)ncc3Cl)ccc2n(C(C)C)c1=O` (centres unmarked) [Compound 315, 2-{[6-({5-chloro-2-[4-({2-[2-(2,6-dioxopiperidin-3-yl)-6-fluoro-1-oxo-2,3-dihydro-1H-isoindol-4-yl]-2-azaspiro[3.5]nonan-7-yl}methyl)piperazin-1-yl]pyrimidin-4-yl}amino)-2-oxo-1-(propan-2-yl)-1,2-dihydroquinolin-3-yl]oxy}-N-methylacetamide]: the maximal degradation (Dmax) was in the range of 50 to 70% and the DC50 was below 10 nM.

`CNC(=O)COc1cc2cc(Nc3nc(N4CCN(CC5CCC6(CC5)CN(c5ccc(F)c7c5CN(C5CCC(=O)NC5=O)C7=O)C6)CC4)ncc3Cl)ccc2n(C(C)C)c1=O` (centres unmarked) [Compound 316, 2-{[6-({5-chloro-2-[4-({2-[2-(2,6-dioxopiperidin-3-yl)-7-fluoro-1-oxo-2,3-dihydro-1H-isoindol-4-yl]-2-azaspiro[3.5]nonan-7-yl}methyl)piperazin-1-yl]pyrimidin-4-yl}amino)-2-oxo-1-(propan-2-yl)-1,2-dihydroquinolin-3-yl]oxy}-N-methylacetamide]: the Dmax lay within 50 to 70% and the DC50 is below 10 nM.

As to `CNC(=O)COc1cc2cc(Nc3nc(N4CCC(O[C@H]5C[C@H](N6CC7(CCN7c7cccc8c7CN(C7CCC(=O)NC7=O)C8=O)C6)C5)CC4)ncc3Cl)ccc2n(C(C)C)c1=O` (some centres unmarked) [Compound 317, 2-({6-[(5-chloro-2-{4-[(1r,3r)-3-{1-[2-(2,6-dioxopiperidin-3-yl)-1-oxo-2,3-dihydro-1H-isoindol-4-yl]-1,6-diazaspiro[3.3]heptan-6-yl}cyclobutoxy]piperidin-1-yl}pyrimidin-4-yl)amino]-2-oxo-1-(propan-2-yl)-1,2-dihydroquinolin-3-yl}oxy)-N-methylacetamide], the Dmax fell in the range of 50 to 70% and the DC50 is below 10 nM.

On to `CNC(=O)COc1cc2cc(Nc3nc(N4CCN(CC5CC6(CCN(c7cc8c(cc7F)C(=O)N(C7CCC(=O)NC7=O)C8)CC6)C5)CC4)ncc3Cl)ccc2n(C(C)C)c1=O` (centres unmarked) [Compound 318, 2-{[6-({5-chloro-2-[4-({7-[2-(2,6-dioxopiperidin-3-yl)-6-fluoro-1-oxo-2,3-dihydro-1H-isoindol-5-yl]-7-azaspiro[3.5]nonan-2-yl}methyl)piperazin-1-yl]pyrimidin-4-yl}amino)-2-oxo-1-(propan-2-yl)-1,2-dihydroquinolin-3-yl]oxy}-N-methylacetamide], for which the maximal degradation (Dmax) was in the range of 50 to 70% and the DC50 is below 10 nM.

Take `CNC(=O)COc1cc2cc(Nc3nc(N4CCN(CC5CC6(CCN(c7ccc8c(c7F)CN(C7CCC(=O)NC7=O)C8=O)CC6)C5)CC4)ncc3Cl)ccc2n(C(C)C)c1=O` (centres unmarked) [Compound 319, 2-{[6-({5-chloro-2-[4-({7-[2-(2,6-dioxopiperidin-3-yl)-4-fluoro-1-oxo-2,3-dihydro-1H-isoindol-5-yl]-7-azaspiro[3.5]nonan-2-yl}methyl)piperazin-1-yl]pyrimidin-4-yl}amino)-2-oxo-1-(propan-2-yl)-1,2-dihydroquinolin-3-yl]oxy}-N-methylacetamide]: the Dmax is 50 to 70% and the DC50 is below 10 nM.

Consider `CNC(=O)COc1cc2cc(Nc3nc(N4CCCCC4)ncc3Cl)ccc2n(CCOc2ccc3c(c2)C(=O)N(C2CCC(=O)N(C)C2=O)C3=O)c1=O` (centres unmarked) [Compound 320, 2-[(6-{[5-chloro-2-(piperidin-1-yl)pyrimidin-4-yl]amino}-1-(2-{[2-(1-methyl-2,6-dioxopiperidin-3-yl)-1,3-dioxo-2,3-dihydro-1H-isoindol-5-yl]oxy}ethyl)-2-oxo-1,2-dihydroquinolin-3-yl)oxy]-N-methylacetamide], for which the DC50 was below 10 nM.

Regarding `CNC(=O)COc1cc2cc(Nc3cc(N4CCC(CN5CCC6(CC5)CN(c5ccc7c(c5)CN(C5CCC(=O)NC5=O)C7=O)C6)CC4)ncc3Cl)ccc2n(C(C)C)c1=O` (centres unmarked) [Compound 321, 2-{[6-({5-chloro-2-[4-({2-[2-(2,6-dioxopiperidin-3-yl)-1-oxo-2,3-dihydro-1H-isoindol-5-yl]-2,7-diazaspiro[3.5]nonan-7-yl}methyl)piperidin-1-yl]pyridin-4-yl}amino)-2-oxo-1-(propan-2-yl)-1,2-dihydroquinolin-3-yl]oxy}-N-methylacetamide], the Dmax lay in the range of 50 to 70% and the half-maximal degradation concentration (DC50) was below 10 nM.

Consider `CNC(=O)COc1cc2cc(Nc3nc(N4CCC(CN5CCN(c6ccc7c(c6F)CN(C6CCC(=O)NC6=O)C7=O)CC5)CC4)ncc3Cl)ccc2n(C(C)C)c1=O` (centres unmarked) [Compound 322, 2-{[6-({5-chloro-2-[4-({4-[2-(2,6-dioxopiperidin-3-yl)-4-fluoro-1-oxo-2,3-dihydro-1H-isoindol-5-yl]piperazin-1-yl}methyl)piperidin-1-yl]pyrimidin-4-yl}amino)-2-oxo-1-(propan-2-yl)-1,2-dihydroquinolin-3-yl]oxy}-N-methylacetamide], for which the Dmax fell in the range of 50 to 70% and the 50% degradation concentration (DC50) was below 10 nM.

As to `CNC(=O)COc1cc2cc(Nc3nc(N4CCC(O[C@H]5C[C@H](N6CC=C(c7ccc8c(c7)CN(C7CCC(=O)NC7=O)C8=O)CC6)C5)CC4)ncc3Cl)ccc2n(C(C)C)c1=O` (some centres unmarked) [Compound 323, 2-({6-[(5-chloro-2-{4-[(1r,3r)-3-{4-[2-(2,6-dioxopiperidin-3-yl)-1-oxo-2,3-dihydro-1H-isoindol-5-yl]-1,2,3,6-tetrahydropyridin-1-yl}cyclobutoxy]piperidin-1-yl}pyrimidin-4-yl)amino]-2-oxo-1-(propan-2-yl)-1,2-dihydroquinolin-3-yl}oxy)-N-methylacetamide], the Dmax was 50 to 70% and the DC50 was below 10 nM.

`CNC(=O)COc1cc2cc(Nc3nc(N4CCC(OC5CCC6(CC5)CN(c5c(F)cc7c(c5F)CN(C5CCC(=O)NC5=O)C7=O)C6)CC4)ncc3Cl)ccc2n(C(C)C)c1=O` (centres unmarked) [Compound 324, 2-{[6-({5-chloro-2-[4-({2-[2-(2,6-dioxopiperidin-3-yl)-4,6-difluoro-1-oxo-2,3-dihydro-1H-isoindol-5-yl]-2-azaspiro[3.5]nonan-7-yl}oxy)piperidin-1-yl]pyrimidin-4-yl}amino)-2-oxo-1-(propan-2-yl)-1,2-dihydroquinolin-3-yl]oxy}-N-methylacetamide]: the Dmax lay within 50 to 70% and the DC50 was below 10 nM.

On to `CNC(=O)COc1cc2cc(Nc3nc(N4CCC(CN5CCC6(CN(c7cccc8c7C(=O)N(C7CCC(=O)NC7=O)C8=O)C6)C(F)C5)CC4)ncc3Cl)ccc2n(C(C)C)c1=O` (centres unmarked) [Compound 325, 2-{[6-({5-chloro-2-[4-({2-[2-(2,6-dioxopiperidin-3-yl)-1,3-dioxo-2,3-dihydro-1H-isoindol-4-yl]-5-fluoro-2,7-diazaspiro[3.5]nonan-7-yl}methyl)piperidin-1-yl]pyrimidin-4-yl}amino)-2-oxo-1-(propan-2-yl)-1,2-dihydroquinolin-3-yl]oxy}-N-methylacetamide], for which the Dmax was 50 to 70% and the DC50 is below 10 nM.

On to `CNC(=O)COc1cc2cc(Nc3nc(N4CCC(CN5CCC6(CN(c7cccc8c7CN(C7CCC(=O)NC7=O)C8=O)C6)C(F)C5)CC4)ncc3Cl)ccc2n(C(C)C)c1=O` (centres unmarked) [Compound 326, 2-{[6-({5-chloro-2-[4-({2-[2-(2,6-dioxopiperidin-3-yl)-1-oxo-2,3-dihydro-1H-isoindol-4-yl]-5-fluoro-2,7-diazaspiro[3.5]nonan-7-yl}methyl)piperidin-1-yl]pyrimidin-4-yl}amino)-2-oxo-1-(propan-2-yl)-1,2-dihydroquinolin-3-yl]oxy}-N-methylacetamide], for which the Dmax was at least 70% and the DC50 was below 10 nM.

On to `CNC(=O)COc1cc2cc(Nc3nc(N4CCC(C(C)(C)N5CCC6(CC5)CN(c5c(OC)ccc7c5CN(C5CCC(=O)NC5=O)C7=O)C6)CC4)ncc3Cl)ccc2n(C(C)C)c1=O` (centres unmarked) [Compound 327, 2-{[6-({5-chloro-2-[4-(2-{2-[2-(2,6-dioxopiperidin-3-yl)-5-methoxy-1-oxo-2,3-dihydro-1H-isoindol-4-yl]-2,7-diazaspiro[3.5]nonan-7-yl}propan-2-yl)piperidin-1-yl]pyrimidin-4-yl}amino)-2-oxo-1-(propan-2-yl)-1,2-dihydroquinolin-3-yl]oxy}-N-methylacetamide], for which the Dmax is at least 70% and the 50% degradation concentration (DC50) was below 10 nM.

With `CNC(=O)COc1cc2cc(Nc3nc(N4CCC(C(C)(C)N5CCC6(CC5)CN(c5cc(OC)cc7c5CN(C5CCC(=O)NC5=O)C7=O)C6)CC4)ncc3Cl)ccc2n(C(C)C)c1=O` (centres unmarked) [Compound 328, 2-{[6-({5-chloro-2-[4-(2-{2-[2-(2,6-dioxopiperidin-3-yl)-6-methoxy-1-oxo-2,3-dihydro-1H-isoindol-4-yl]-2,7-diazaspiro[3.5]nonan-7-yl}propan-2-yl)piperidin-1-yl]pyrimidin-4-yl}amino)-2-oxo-1-(propan-2-yl)-1,2-dihydroquinolin-3-yl]oxy}-N-methylacetamide], the maximal degradation (Dmax) was in the range of 50 to 70% and the DC50 was below 10 nM.

The term Dmax denotes the greatest extent of degradation seen. As a reminder, the DC50 is the midpoint of the concentration-degradation curve.
